Consider one molecule from paper PMC6383986, “Fragment-Based Covalent Ligand Screening Enables Rapid Discovery of Inhibitors for the RBR E3 Ubiquitin Ligase HOIP” (Journal of the American Chemical Society, 2019).

For the assay, the target named is T1, HOIP RBR domain (Homo sapiens, UniProt Q96EP0).
T1 construct: made in house; host or cells: E. coli BL21-GOLD(DE3)
T1 sequence (Q96EP0 697-1072): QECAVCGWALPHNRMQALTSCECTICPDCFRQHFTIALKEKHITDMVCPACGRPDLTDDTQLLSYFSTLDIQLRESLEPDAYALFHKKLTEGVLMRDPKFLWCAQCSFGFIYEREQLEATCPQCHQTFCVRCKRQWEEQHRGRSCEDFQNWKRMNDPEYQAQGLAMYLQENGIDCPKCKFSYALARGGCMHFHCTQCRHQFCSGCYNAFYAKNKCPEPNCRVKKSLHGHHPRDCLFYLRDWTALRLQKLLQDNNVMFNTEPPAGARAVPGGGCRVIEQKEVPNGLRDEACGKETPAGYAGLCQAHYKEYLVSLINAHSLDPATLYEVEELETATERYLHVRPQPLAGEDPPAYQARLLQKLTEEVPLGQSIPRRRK
Nature of the assay: Fluorescence-based ubiquitin thioester transfer assay. The assay is classed as biochemical. Conditions: HOIP RBR prelabeled with compound; E2 UbcH7. Here is the method: overnight, and further purified by size-exclusion chromatography (Superdex 75/ÄKTA purifier).
The appropriate fractions were concentrated to 4 mL in a 3.5 kDa MWCO protein concentrator (Merck). The protein concentration was measured on a Nanodrop UV spectrophotometer (absorbance at 650 nm) as 19 µM and corroborated by SDS PAGE. Labelling was confirmed by protein LC-MS (Supplementary Figure S10). The labelled protein was aliquoted, flash frozen and […]
Supplementary Figure S10. TIC traces of the deconvoluted protein masses of the M1C ubiquitin mutant (M1C Ub) and the AlexaFluor647 labelled M1C ubiquitin mutant (M1C UbA647).
Formation of the HOIP RBR-(5) conjugate
The HOIP RBR domain (7.5 µM) was incubated (Eppendorf Thermomixer) with inhibitor (5) (750 µM, 1.5% DMSO) in 50 mM HEPES, 150 mM NaCl, pH 7.5 buffer at 600 rpm, 23 °C for 18 h. […] The protein concentration was measured on Nanodrop UV spectrophotometer (absorbance at 280 nm), and the protein was flash frozen in liquid nitrogen […]
(10 min), HOIP RBR or HOIP-RBR-(5) conjugate (5 min), C-terminally His6-tagged ubiquitin (10 min). […] The aliquots were analyzed by SDS PAGE and the gels scanned at 700 nm (LICOR Odyssey CLx) using auto-adjustment of the fluorescence intensity, then stained with Coomassie (Figure 4B and Supplementary Figure S11). […]

“Also recorded” adds a separate entry of the source.

On to `COC(=O)/C=C/CNC(=O)c1cc2c([nH]c1=O)CCC2` [Compound 5], for which the “formation of E3~Ub thioester / loading of ubiquitin onto HOIP RBR” value is “inhibits formation of the E3∼Ub thioester intermediate; also recorded: effectively prevented the loading of ubiquitin onto the E3”.
